Measurements reported in PubChem BioAssay AID849 (SRMLSC, 2007).
Active and inactive are the calls of the source. How the calls were made is not given here.

tested on: Saccharomyces cerevisiae lifespan shortening, growth inhibition; test: Saccharomyces cerevisiae growth inhibition potency – dose response (AID 849);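 further: yeast growth read as optical density after two days at 30 degrees C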

Row | SMILES | IC50
1 | Cc1nc2ccccc2c2nc3ccccc3n12 | 5.3 µM
2 | CSC1=NSC2=NC(=O)/C(=C/c3coc4ccccc4c3=O)C(=N)N12 | 44.1 µM
3 | Cc1ccc2nc(-c3ccc(NS(=O)(=O)c4ccc(F)c(F)c4)cc3)sc2c1 | > 100 µM (inactive)
4 | CCc1oc2ccccc2c1C(=O)c1cc(Br)c(O)c(Br)c1 | 49.2 µM
5 | Cn1cccc1C(=O)Nc1nc(-c2ccccn2)cs1 | 33.7 µM
6 | O=C(O)c1ccc2c3c(ncnc13)-c1ccccc1C2=O | 1.5 µM
7 | O=C(c1ccc(C(=O)N2CCCc3ccccc32)s1)N1CCCc2ccccc21 | 35.6 µM
8 | Cc1ccc(C(=O)OCn2ncc(Cl)c(Cl)c2=O)cc1 | 3.73 µM
9 | Cc1conc1NC(c1cccs1)c1ccc2cccnc2c1O (stereo not drawn) | 40.8 µM
10 | Fc1ccc(N/N=C2/CC(c3ccccc3)Oc3ccccc32)c(F)c1 (stereo not drawn) | 27.7 µM
11 | O=C(O)c1ccc(N(c2ccccc2)c2ccccc2)cc1 | > 100 µM (inactive)
12 | Cn1c(=O)c2nc(-c3ccccc3)oc2c2ccccc21 | > 100 µM (inactive)
13 | COc1cc(/C=N/N(C)c2ccccc2)cc(Cl)c1O | > 100 µM (inactive)
14 | CN(C)CCNC=C(C(=O)Nc1ccc(Cl)cc1Cl)C(=O)Nc1ccc(Cl)cc1Cl | 23.9 µM
15 | NNC(=O)c1cccc(COc2ccc(Br)cc2)c1 | 41.9 µM
16 | Clc1ccc(N/N=C/c2cccnc2)cc1 | > 100 µM (inactive)
17 | CC(C)(C)C(O)C(Oc1ccc(Cl)cc1)n1cncn1 (stereo not drawn) | 3.14 µM
18 | O=C(CCSc1nnc(-c2ccncc2)o1)Nc1ccc(Cl)cc1 | 37.7 µM
19 | Nc1ccc(O)c2c1C(=O)c1ccccc1C2=O | 28.1 µM
20 | CCCCCCCOC(=O)C[N+](C)(C)CCOC1CC2CCC1(C)C2(C)C (stereo not drawn) | 28.4 µM
21 | CCN1/C(=C(\O)c2ccccc2)C(=O)c2ccccc2S1(=O)=O | > 100 µM (inactive)
22 | Cc1ccc(-n2c(C)cc(C(=O)COC(=O)c3ccc[nH]c3=O)c2C)cc1 | 18.1 µM
23 | Cc1ccc(-c2nn3c(C)nnc3s2)cc1NC(=O)c1ccc(OC(C)C)cc1 | > 100 µM (inactive)
24 | Clc1ccc(CSC(Cn2ccnc2)c2ccc(Cl)cc2Cl)cc1 (stereo not drawn) | 0.528 µM

Row | SMILES | IC50
25 | Cc1cc(O)c(/C=N/Nc2cccc(Cl)c2)c(=O)o1 | 40.3 µM
26 | c1ccc2nc3ccccc3nc2c1 | 16.8 µM
27 | CCOc1ccc(N/N=C(/C#N)C(N)=O)cc1 | 7.82 µM
28 | C=CCn1cnc2c(c1=O)c1nc3ccccc3nc1n2/N=C/c1cc(OC)c(OC)c(OC)c1 | 37.4 µM
29 | CC1CCN(c2nc(/C=C/c3ccccc3)nc3ccccc23)CC1 | 24.7 µM
30 | CCCC(=O)NC(c1cccs1)c1cc([N+](=O)[O-])c2cccnc2c1O (stereo not drawn) | 16.6 µM
31 | COc1ccc(OC)c(C2CC(=O)N3CN(c4cccc(Cl)c4)CSC3=C2C#N)c1 (stereo not drawn) | > 100 µM (inactive)
32 | Oc1c(CN2CCN(c3ccc(F)cc3)CC2)cc(Cl)c2cccnc12 | 10.2 µM
33 | Cc1cccc(C(=O)O/N=C/c2c(N3CCOCC3)n(C)c3ccccc23)c1 | 35.3 µM
34 | CC(=O)N1c2ccccc2C2(O)N=C(C)SC12 (stereo not drawn) | > 100 µM (inactive)
35 | Cc1nn2c(-c3ccncc3)nnc2c2ccccc12 | 6.35 µM
36 | CCN1CCN(c2ncnc3c2sc(=S)n3-c2ccccc2)CC1 | > 100 µM (inactive)
37 | CCn1ncc(C2=NOC(C(=O)Nc3c(C)n(C)n(-c4ccccc4)c3=O)C2)c1C (stereo not drawn) | > 100 µM (inactive)
38 | COc1ccc(-c2n[nH]c(C(F)(F)F)c2-c2cc3ccccc3o2)c(O)c1 | 26.1 µM
39 | Cc1nc2ccc(NC(=O)c3cc([N+](=O)[O-])cc([N+](=O)[O-])c3Cl)cc2s1 | 28.9 µM
40 | CN(c1ccc(O)cc1)c1nc(-c2ccccc2)cs1 | > 100 µM (inactive)
41 | CS(=O)(=O)N1CCN(C(=O)c2ccccc2F)CC1 | > 100 µM (inactive)
42 | Cc1csc(NC(=O)Cc2coc3cc(C)c(C(C)C)cc23)n1 | > 100 µM (inactive)
43 | Cc1nc2c(c(C)c1C#N)C(=O)c1ccccc1-2 | 38.8 µM
44 | O=c1oc2ccccc2cc1-c1cn2cccnc2n1 | > 100 µM (inactive)
45 | CNC(=O)Oc1cccc(-c2cn3cc(OC(=O)NC)ccc3n2)c1 | 10.3 µM
46 | CCCc1cc(-c2n[nH]c(=S)n2C(C)c2ccccc2)cs1 (stereo not drawn) | > 100 µM (inactive)
47 | c1ccc(-c2nc3nonc3nc2-c2ccccc2)cc1 | > 100 µM (inactive)
48 | CCN1/C(=C/c2ccc3cccc(C)c3[n+]2CC)Sc2ccccc21 | 9.8 µM

Row | SMILES | IC50
49 | O=c1c2c([N+](=O)[O-])cc([N+](=O)[O-])cc2sn1-c1ccc(Br)cc1 | > 100 µM (inactive)
50 | CCCCOC(=O)n1c(=S)oc2cc(Cl)ccc21 | 16.5 µM
51 | Cc1ccc(C(=O)CSC2=NC(N)=C(C#N)C3(CCCCC3)C2C(N)=O)cc1 (stereo not drawn) | > 100 µM (inactive)
52 | Cc1cccc(C(=O)CC(=O)c2cc(Cl)ccc2O)c1 | 45.7 µM
53 | COc1cccc2sc(Nc3nc(-c4ccccn4)cs3)nc12 | 20.4 µM
54 | Cc1noc2ncnc(Sc3ccccc3Cl)c12 | 26.6 µM
55 | O/N=C/c1cc(Cl)ccc1OCc1cccc2ccccc12 | > 100 µM (inactive)
56 | CCCCCCOC(=O)Sc1nc2ccccc2o1 | 20.2 µM
57 | Cn1c(C(=O)N2CCC(C(=O)N3CCN(Cc4ccc5c(c4)OCO5)CC3)CC2)cc2sccc21 | > 100 µM (inactive)
58 | O=c1c2ccccc2nc2c3ccccc3c3nncn3n12 | 49.9 µM
59 | O=C(/C=C/c1ccccc1)c1cc(Br)ccc(=O)c1O | 10.1 µM
60 | CCOC(=O)c1cnc(-n2nc(C)cc2C)nc1NC1CCCCC1 | 20 µM
61 | Clc1ccc(N=c2ssnc2Cl)cc1 | 25.6 µM
62 | Cc1ccc(N/N=C/c2cccnc2)cc1 | 39.6 µM
63 | CCSc1nc2ccccc2n1S(=O)(=O)c1ccccc1 | > 100 µM (inactive)
64 | N/C(Cc1ccc(Cl)c(Cl)c1)=N\OC(=O)c1cccs1 | > 100 µM (inactive)
65 | O=C(CCCSc1ccccc1)Nc1nc(-c2ccccn2)cs1 | 50.5 µM
66 | CC(C)(C)c1nnc(N/N=C/c2cc(Br)ccc2O)n(N)c1=O | 50 µM
67 | COc1ccc2cc(C(=O)O)ccc2c1 | 13.9 µM
68 | O=C(CCc1ccccc1)NNC(=S)NC(=O)c1ccccc1 | > 100 µM (inactive)
69 | O=c1c2cccc3c2c(nn1CN1CCOCC1)-c1ccccc1-3 | 23.5 µM
70 | O=C(O)c1ccccc1C(=O)NNc1ccc(Cl)cc1 | 4.61 µM
71 | COc1ccc(-c2[nH]ncc2-c2ccc(Cl)cc2)c(O)c1 | > 100 µM (inactive)
72 | O=C1C(=C2CCCCC2)SC(=S)N1Cc1ccco1 | > 100 µM (inactive)

Row | SMILES | IC50
73 | Cc1cc(C)cc(NS(=O)(=O)c2cnc(Cl)c(Cl)c2)c1 | 47.5 µM
74 | CNC(=S)N/N=C(\C)c1ccc(N2CCOCC2)cc1 | > 100 µM (inactive)
75 | COC(=O)CSCc1nc2ccccc2[nH]c1=O | > 100 µM (inactive)
76 | CNC(=O)c1cc2c(ccc3ccccc32)oc1=N | 12.4 µM
77 | Cc1cc(/C=N/n2cnnc2)c(C)n1-c1ccc(OCc2ccc(Cl)cc2Cl)cc1 | > 100 µM (inactive)
78 | Cc1cccc(NC(=O)CC2SC(=O)N(c3ccccc3)C2=O)c1 (stereo not drawn) | > 100 µM (inactive)
79 | N/C(Cc1ccc(Cl)cc1)=N\OC(=O)C1CCCCC1 | 11.5 µM
80 | Cc1ccc(/C=C2\C(=O)NC(=S)N(c3ccccc3F)C2=O)s1 | 13.9 µM
81 | OCc1ccc(O)c2ncccc12 | 32.2 µM
82 | COCC(C)OC(=O)/C(C#N)=C\c1coc2ccc(C)cc2c1=O (stereo not drawn) | > 100 µM (inactive)
83 | O=C(O)C1C2C=CC(O2)C1C(=O)NC1CCCc2ccccc21 (stereo not drawn) | > 100 µM (inactive)
84 | Oc1c(Cl)cc(Cl)c2c1NCCC2 | 17.4 µM
85 | CC1CCCC2(C1)NC(=S)N(c1ccccc1)N2 (stereo not drawn) | 38.2 µM
86 | Clc1ccc(COC(Cn2ccnc2)c2ccc(Cl)cc2Cl)cc1 (stereo not drawn) | 0.809 µM
87 | CCc1cccc(CC)c1NC(=S)NCc1ccc2[nH]c(C)cc2c1 | > 100 µM (inactive)
88 | Cc1cccc(Cn2ncc(Cl)c(Cl)c2=O)c1 | 37.4 µM
89 | OC(CNCCC1C=Nc2ccccc21)Cn1c2ccc(Cl)cc2c2cc(Cl)ccc21 (stereo not drawn) | 20 µM
90 | Oc1ccccc1NCC(O)Cn1ccc2ccccc21 (stereo not drawn) | > 100 µM (inactive)
91 | Nc1nonc1C(=O)NCCN=Cc1cc(Cc2ccccc2)cc(Br)c1O | > 100 µM (inactive)
92 | O=c1c2ccccc2nc2sc3ccccc3n12 | 27.8 µM
93 | Cc1ccc(S(=O)(=O)Nc2ccc(SC(F)F)cc2)c(C)c1 | > 100 µM (inactive)
94 | COCCN1CSC(=S)N(Cc2ccco2)C1 | 20.1 µM
95 | Cc1nc(Cl)c2oc3ccccc3c2n1 | > 100 µM (inactive)
96 | CCCCCCCCC/C(=N\O)c1ccccn1 | 4.51 µM

Row | SMILES | IC50
97 | Oc1c(I)cc(Cl)c2cccnc12 | 23 µM
98 | CC(C)(Oc1ccc(Cl)cc1)C(=O)NC1=NN(c2ccccc2)C(=O)C1 | 18.2 µM
99 | O=C(CSC1=NCCS1)N1CCN(c2ccc(Cl)cc2)CC1 | > 100 µM (inactive)
100 | Cc1c(Cl)cccc1N=Cc1ccc([N+](=O)[O-])s1 | > 100 µM (inactive)
101 | O=[N+]([O-])c1ccc(N/N=C2/CCCCC2c2ccccn2)cc1 (stereo not drawn) | 5.86 µM
102 | O=C(OCn1ncc(Cl)c(Cl)c1=O)c1ccc(F)cc1 | > 100 µM (inactive)
103 | Cc1ccc(-n2nnc3c(=O)n(CC(=O)N4CCC(C)CC4)cnc32)cc1 | > 100 µM (inactive)
104 | O=c1cccc2n1Cc1cc3ccccc3nc1-2 | 29.8 µM
105 | O=Cc1c(Sc2ccccc2)nc2ccccn2c1=O | 29 µM
106 | N/C(Cc1ccc(Cl)cc1Cl)=N\OC(=O)c1cccs1 | 0.78 µM
107 | Cc1cccc(-c2nnc3sc(-c4ccccc4C)nn23)c1 | > 100 µM (inactive)
108 | CCOC(=O)c1ccc(-n2[nH]c(-c3ccccc3)cc2=O)cc1 | 17.1 µM
109 | O=C1NC(c2ccccn2)Nc2sc3c(c21)CCC3 (stereo not drawn) | > 100 µM (inactive)
110 | CCN1/C(=C/c2ccc3cc(C)ccc3[n+]2CC)Sc2ccccc21 | 4.48 µM
111 | CCCc1cc(C(=O)Cc2ccc(F)cc2)c(O)cc1O | 48.3 µM
112 | Cn1cccc1Cc1nnc(SCC(=O)Nc2nccs2)n1CCc1ccccc1 | > 100 µM (inactive)
113 | CN1CCN(C2=Cc3ccc(Cl)cc3Sc3ccc(F)cc32)CC1 | 30 µM
114 | CCOC(=O)C1CCCCN1C(=O)CCc1c(C)nc2cc(-c3ccccc3)nn2c1C (stereo not drawn) | > 100 µM (inactive)
115 | CC1=C/C(=N\OS(=O)(=O)c2ccccc2)C(C)=CC1=O | 1.54 µM
116 | Cc1nc2c(F)c(F)c(C(F)(F)F)c(F)c2[nH]1 | > 100 µM (inactive)
117 | O/N=C/c1ccc(OCc2ccccc2)c(Br)c1 | > 100 µM (inactive)
118 | CC1(CCc2ccccc2)NC(=S)N(c2ccc(Cl)cc2)N1 (stereo not drawn) | 42 µM
